How the values were obtained:
Experiment in all cases: relative viability (nuclei count vs DMSO), 5 days (fraction); higher = more cells survive
Conditions in all cases: main component drawn
[1] = compound: CC1=C(N=C(N=C1N)[C@H](CC(=O)N)NC[C@@H](C(=O)N)N)C(=O)N[C@@H]([C@H](C2=CN=CN2)OC3C(C(C(C(O3)CO)O)O)OC4C(C(C(C(O4)CO)O)OC(=O)N)O)C(=O)N[C@H](C)[C@H]([C@H](C)C(=O)N[C@@H]([C@@H](C)O)C(=O)NCCC5=NC(=CS5)C6=NC(=CS6)C(=O)NCCC[S+](C)C)O [Bleomycin] + CC(=O)c1c(C)c2cnc(Nc3ccc(N4CCNCC4)cn3)nc2n(C2CCCC2)c1=O [Palbociclib] (partner 0.5 µM)
In short: (§1)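 The day after seeding in 1536-well plates, lung cancer cell lines were treated by pin tool with a single drug, or with a fixed anchor-drug dose together with five library-drug doses (not always all listed) in √10 steps. After 5 days, a combined fix-and-stain solution (final 0.05% Triton X-100, 1% formaldehyde, 1 ug/ml Hoechst) was added. Nuclei counted on 4× images gave relative viability as treated counts over vehicle counts, reported as the median of duplicate plates.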

[2] = compound: CC1=C(N=C(N=C1N)[C@H](CC(=O)N)NC[C@@H](C(=O)N)N)C(=O)N[C@@H]([C@H](C2=CN=CN2)OC3C(C(C(C(O3)CO)O)O)OC4C(C(C(C(O4)CO)O)OC(=O)N)O)C(=O)N[C@H](C)[C@H]([C@H](C)C(=O)N[C@@H]([C@@H](C)O)C(=O)NCCC5=NC(=CS5)C6=NC(=CS6)C(=O)NCCC[S+](C)C)O [Bleomycin] + CC1(C)CCC(c2ccc(Cl)cc2)=C(CN2CCN(c3ccc(C(=O)NS(=O)(=O)c4ccc(N[C@H](CCN5CCOCC5)CSc5ccccc5)c(S(=O)(=O)C(F)(F)F)c4)cc3)CC2)C1 [Navitoclax] (partner 0.5 µM)
In short: as §1

[3] = compound: CC1=C(N=C(N=C1N)[C@H](CC(=O)N)NC[C@@H](C(=O)N)N)C(=O)N[C@@H]([C@H](C2=CN=CN2)OC3C(C(C(C(O3)CO)O)O)OC4C(C(C(C(O4)CO)O)OC(=O)N)O)C(=O)N[C@H](C)[C@H]([C@H](C)C(=O)N[C@@H]([C@@H](C)O)C(=O)NCCC5=NC(=CS5)C6=NC(=CS6)C(=O)NCCC[S+](C)C)O [Bleomycin] + CC(=O)Nc1cccc(-n2c(=O)n(C3CC3)c(=O)c3c(Nc4ccc(I)cc4F)n(C)c(=O)c(C)c32)c1 [Trametinib] (partner 0.02 µM)
In short: as §1

[4] = compound: CC1=C(N=C(N=C1N)[C@H](CC(=O)N)NC[C@@H](C(=O)N)N)C(=O)N[C@@H]([C@H](C2=CN=CN2)OC3C(C(C(C(O3)CO)O)O)OC4C(C(C(C(O4)CO)O)OC(=O)N)O)C(=O)N[C@H](C)[C@H]([C@H](C)C(=O)N[C@@H]([C@@H](C)O)C(=O)NCCC5=NC(=CS5)C6=NC(=CS6)C(=O)NCCC[S+](C)C)O [Bleomycin] + C[C@]1(O)C[C@@H](c2nc(-c3ccc4ccc(-c5ccccc5)nc4c3)c3c(N)nccn32)C1 [Linsitinib] (partner 1 µM)
In short: as §1

| Cell Line | relative viability ([1]; first compound 0.01 µM) | relative viability ([1]; first compound 0.03162 µM) | relative viability ([1]; first compound 0.1 µM) | relative viability ([1]; first compound 0.3162 µM) | relative viability ([1]; first compound 1 µM) | relative viability ([2]; first compound 0.01 µM) | relative viability ([2]; first compound 0.03162 µM) | relative viability ([2]; first compound 0.1 µM) | relative viability ([2]; first compound 0.3162 µM) | relative viability ([2]; first compound 1 µM) | relative viability ([3]; first compound 0.01 µM) | relative viability ([3]; first compound 0.03162 µM) | relative viability ([3]; first compound 0.1 µM) | relative viability ([3]; first compound 0.3162 µM) | relative viability ([3]; first compound 1 µM) | relative viability ([4]; first compound 0.01 µM) | relative viability ([4]; first compound 0.03162 µM) | relative viability ([4]; first compound 0.1 µM) | relative viability ([4]; first compound 0.3162 µM) | relative viability ([4]; first compound 1 µM) |
| --- | --- | --- | --- | --- | --- | --- | --- | --- | --- | --- | --- | --- | --- | --- | --- | --- | --- | --- | --- | --- |
| NCI-H2087 | 0.222 | 0.236 | 0.221 | 0.118 | 0.147 | 0.69 | 1.04 | 0.841 | 0.371 | 0.158 | 0.204 | 0.146 | 0.176 | 0.177 | 0.135 | 0.717 | 0.977 | 0.895 | 0.374 | 0.255 |
| LXF-289 | 0.58 | 0.571 | 0.606 | 0.324 | 0.221 | 0.877 | 0.879 | 0.799 | 0.35 | 0.179 | 0.599 | 0.664 | 0.634 | 0.459 | 0.2 | 0.899 | 0.91 | 0.839 | 0.389 | 0.186 |
| NCI-H520 | 0.215 | 0.218 | 0.215 | 0.203 | 0.206 | 0.858 | 0.957 | 1.1 | 0.927 | 0.656 | 0.673 | 0.608 | 0.814 | 0.547 | 0.394 | 0.949 | 0.987 | 0.973 | 0.687 | 0.566 |
| NCI-H1944 | 0.228 | 0.188 | 0.218 | 0.156 | 0.13 | 0.762 | 0.77 | 0.594 | 0.423 | 0.233 | 0.319 | 0.255 | 0.276 | 0.234 | 0.165 | 0.781 | 0.815 | 0.5 | 0.507 | 0.238 |
| NCI-H2009 | 0.202 | 0.164 | 0.215 | 0.16 | 0.192 | 1.16 | 1.18 | 1.09 | 0.858 | 0.532 | 0.296 | 0.275 | 0.276 | 0.258 | 0.224 | 1.12 | 1.22 | 1.17 | 0.864 | 0.58 |
| 201T | 0.397 | 0.32 | 0.384 | 0.311 | 0.336 | 1.17 | 1.13 | 1.18 | 1.16 | 1.04 | 0.697 | 0.731 | 0.673 | 0.598 | 0.555 | 0.959 | 1.05 | 1.05 | 1 | 0.83 |
| NCI-H2347 | 0.43 | 0.479 | 0.459 | 0.359 | 0.338 | 0.75 | 0.883 | 0.663 | 0.259 | 0.402 | 0.309 | 0.254 | 0.29 | 0.279 | 0.226 | 0.848 | 0.846 | 0.831 | 0.484 | 0.464 |
| LOU-NH91 | 0.476 | 0.449 | 0.428 | 0.35 | 0.364 | 0.553 | 0.437 | 0.362 | 0.266 | 0.199 | 0.669 | 0.547 | 0.484 | 0.409 | 0.357 | 0.78 | 0.611 | 0.522 | 0.37 | 0.317 |

From the supplement of paper PMC10307832
